Data as given in PubChem BioAssay AID1963426 (Molecular Pharmacology Branch, DTP, NCI, 2024).
pIC50: −log10 of the molar value.

Tested on: 186277-243-T-J2-PDC complex spheroid growth, % test/control
Assay: Anticancer human tumor 186277-243-T-J2-PDC patient-derived colon adenocarcinoma cell line growth inhibition [Asc]
Conditions: for pIC50: curve of first compound; for viability, T/C: stronger effect = lower value
Procedure: Multicellular complex tumor spheroid response to apoptosis pathway targeting inhibitors Alrizomadlin, Pelcitoclax, and Dasminapant in combination with a variety of drugs and investigational agents in selected tumor cell lines
The MDM2 inhibitor alrizomadlin, the Bcl-2/Bcl-xL inhibitor pelcitoclax, and the IAPs inhibitor dasminapant were evaluated both individually and in combination with standard of care and investigational anticancer small molecules within a complex spheroid model of solid tumors. . Complex spheroids include a stromal component modeled by human endothelial cells (HUVEC) and fibroblasts modeled by human mesenchymal stem cells (MSCs). The concentration ranges selected for each drug and investigational agent were based upon clinically achievable concentrations if the clinical Cmax of the agent was known.
Compounds. The drugs and investigational agents: alrizomadlin (APG-115; NSC831270), pelcitoclax (APG-1252; NSC835773), dasminapant (APG-1387;NSC834197), TAK-243 (NSC785004), copanlisib (NSC809693), olaparib (NSC753686), talazoparib (NSC767125), cobimetinib (NSC 768068), eltanexor (KPT-8602, NSC 794443), abemaciclib (NSC 768073), sotorasib (NSC818433), adagrasib (NSC 831453), MRTX-1133 (NSC 836407), Iadademestat (ORY1001, NSC 806812), and RMC-4630 (NSC839698), were obtained from the NCI Developmental Therapeutics Program Chemical Repository. The FDA-approved anticancer drug set is available from the Developmental Therapeutics Program at https://dtp.cancer.gov/organization/dscb/obtaining/available plates.htm. […] The stock solutions were prepared in dimethyl sulfoxide (DMSO, Sigma-Aldrich, St. Louis, MO, cat. D2650) at 800-fold the tested concentration and stored at -70 degrees C prior to their use. All drugs and investigational agents were tested over a range starting from a high concentration at or near the clinical Cmax and decreasing in half-log increments. If the clinical Cmax for an agent had not been determined, the highest concentration tested was 10 microM.
The patient-derived cancer (PDC) cell lines include five colon adenocarcinomas: 186277-243-T-J2-PDC, 616215-338-R-J1-PDC, 439559-082-T-J2-PDC, 463943-066-T-J2-PDC, and 519858-162-T-J1-PDC; three pancreatic carcinomas: 323965-272-R-J2-PDC, 521955-158-R6-J3-PDC, and 521955-158-R2-J5-PDC; two uterine sarcomas: 327498-152-R-J2-PDC and 993429-296-R-J1-PDC; two rhabdomyosarcomas: 755483-174-R-J1-PDC and 772245-204-R-J1-PDC; two soft tissue sarcomas: 126254-015-R-J1-PDC and 494315-158-R-J1-PDC; two malignant fibrous histiocytomas: 317291-083-R-J1-PDC and 596521-263-R-J1-PDC; two breast carcinomas: 171881-019-R-J1-PDC and 885512-296-R-J2-PDC; and one ovarian carcinoma: 6556581-035-R-J-PDC were obtained from the NCI PDMR, (https://pdmr.cancer.gov). The established cell lines HSSY-2 synovial sarcoma (RRID:CVCL 8719), SYO-1 synovial sarcoma (RRID:CVCL_7146), MPNST malignant peripheral neural sheath tumor were obtained from the Sloan Kettering Institute. The following established cell lines were purchased from the American Type Culture Collection (ATCC, Manassas, VA), Sor the received from the NCI repository:, PANC-1 pancreatic carcinoma (CRL-1469, RRID:CVCL_0480), OVCAR-5 ovarian carcinoma (RRID:CVCL_1628), OVCAR-8 ovarian carcinoma (RRID:CVCL_1629), , MCF-7 breast carcinoma (CRL-12584, RRID:CVCL_0031), MDA-MB-231 breast carcinoma (CRL-12532, RRID:CVCL_0062), NCI-H1876 small cell lung carcinoma (CRL-5902, RRID:CVCL_1503), NCI-H510A small cell lung carcinoma (HTB-184, RRID:CVCL_1565), NCI-H1417 (CRL-5869, RRID:CVCL_1469), and NCI-H196 small cell lung carcinoma (CRL-5823, RRID:CVCL_1509). Dr. Peter Houghton (Greehey Children's Cancer Research Institute, University of Texas Health Science Center, San Antonio, TX) provided Rh-18 rhabdomyosarcoma (RRID:CVCL_1659). Pooled donor human umbilical vein endothelial cells (HUVEC, Lonza, cat. CC-2519) and human mesenchymal stem cells (hMSC, Lonza, cat. PT-2501) were purchased from Lonza (Walkersville, MD).
Cell Culture. […]
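Note: spheroids exposed to agents for 7 days.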
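Throughout, for viability, T/C: 100% = DMSO vehicle control wells.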

With `Cc1nc(N2CCC3(CC2)COC(C)C3N)c(CO)nc1Sc1ccnc(N)c1Cl` (stereo not given) + CCN1C(C(=O)NC23CCC(C(=O)O)(CC2)CC3)C(c2cccc(Cl)c2F)C2(C(=O)Nc3cc(Cl)ccc32)C12CCCCC2 the pIC50 (second compound 0.03 µM) was < 5.52, the pIC50 (second compound 0.0949 µM) was < 5.52 and the pIC50 (second compound 0.3 µM) was 6.54. The pIC50 (second compound 0.949 µM) was > 8.02, the pIC50 (second compound 3 µM) was > 8.02 and the viability, T/C (second compound 0.03 µM, first compound 0.00949 µM) was 122%. The viability, T/C (second compound 0.03 µM, first compound 0.03 µM) was 127%, the viability, T/C (second compound 0.03 µM, first compound 0.0949 µM) was 105% and the viability, T/C (second compound 0.03 µM, first compound 0.3 µM) was 113%. It also gave a viability, T/C (second compound 0.03 µM, first compound 0.949 µM) of 90.9%, a viability, T/C (second compound 0.03 µM, first compound 3 µM) of 90.7% and a viability, T/C (second compound 0.0949 µM, first compound 0.00949 µM) of 95.1%. For the same compound, the viability, T/C (second compound 0.0949 µM, first compound 0.03 µM) was 89.2%, the viability, T/C (second compound 0.0949 µM, first compound 0.0949 µM) was 84.5% and the viability, T/C (second compound 0.0949 µM, first compound 0.3 µM) was 84.5%. For the same compound, the viability, T/C (second compound 0.0949 µM, first compound 0.949 µM) was 71.9%, the viability, T/C (second compound 0.0949 µM, first compound 3 µM) was 57.8% and the viability, T/C (second compound 0.3 µM, first compound 0.00949 µM) was 63.2%. For the same compound, the viability, T/C (second compound 0.3 µM, first compound 0.03 µM) was 67.2%, the viability, T/C (second compound 0.3 µM, first compound 0.0949 µM) was 57.3% and the viability, T/C (second compound 0.3 µM, first compound 0.3 µM) was 48.6%. It also gave a viability, T/C (second compound 0.3 µM, first compound 0.949 µM) of 39.6%, a viability, T/C (second compound 0.3 µM, first compound 3 µM) of 28.3% and a viability, T/C (second compound 0.949 µM, first compound 0.00949 µM) of 45.9%. For the same compound, the viability, T/C (second compound 0.949 µM, first compound 0.03 µM) was 43.6%, the viability, T/C (second compound 0.949 µM, first compound 0.0949 µM) was 40.8% and the viability, T/C (second compound 0.949 µM, first compound 0.3 µM) was 33.1%. For the same compound, the viability, T/C (second compound 0.949 µM, first compound 0.949 µM) was 26.1%, the viability, T/C (second compound 0.949 µM, first compound 3 µM) was 19.1% and the viability, T/C (second compound 3 µM, first compound 0.00949 µM) was 26.8%. It also gave a viability, T/C (second compound 3 µM, first compound 0.03 µM) of 27.6%, a viability, T/C (second compound 3 µM, first compound 0.0949 µM) of 22.1% and a viability, T/C (second compound 3 µM, first compound 0.3 µM) of 19.4%. For the same compound, the viability, T/C (second compound 3 µM, first compound 0.949 µM) was 11.4% and the viability, T/C (second compound 3 µM, first compound 3 µM) was 9.13%.
`C#Cc1c(F)ccc2cc(O)cc(-c3ncc4c(N5CC6CCC(C5)N6)nc(OCC56CCCN5CC(F)C6)nc4c3F)c12` (stereo not given) + Cc1c(S(C)(=O)=O)c(-c2cc(F)cc(N3CCN(c4ccc(NS(=O)(=O)c5ccc(NC(CCN6CCC(C(=O)OCCCP(=O)(O)O)CC6)CSc6ccccc6)c(S(=O)(=O)C(F)(F)F)c5)cc4)CC3)c2)c(-c2ccc(Cl)cc2)n1C(C)C was tested, and the pIC50 (second compound 0.1 µM) was 6.75, the pIC50 (second compound 0.316 µM) was 6.90 and the pIC50 (second compound 1 µM) was 6.94. The pIC50 (second compound 3.16 µM) was 7.04, the pIC50 (second compound 10 µM) was 7.06 and the viability, T/C (second compound 0.1 µM, first compound 0.0316 µM) was 91.5%. For the same compound, the viability, T/C (second compound 0.1 µM, first compound 0.1 µM) was 69.7%, the viability, T/C (second compound 0.1 µM, first compound 0.316 µM) was 30.2% and the viability, T/C (second compound 0.1 µM, first compound 1 µM) was 11.3%. It also gave a viability, T/C (second compound 0.1 µM, first compound 3.16 µM) of 6.43%, a viability, T/C (second compound 0.1 µM, first compound 10 µM) of 5.27% and a viability, T/C (second compound 0.316 µM, first compound 0.0316 µM) of 115%. For the same compound, the viability, T/C (second compound 0.316 µM, first compound 0.1 µM) was 56.9%, the viability, T/C (second compound 0.316 µM, first compound 0.316 µM) was 23.6% and the viability, T/C (second compound 0.316 µM, first compound 1 µM) was 7.76%. For the same compound, the viability, T/C (second compound 0.316 µM, first compound 3.16 µM) was 3.89%, the viability, T/C (second compound 0.316 µM, first compound 10 µM) was 3.47% and the viability, T/C (second compound 1 µM, first compound 0.0316 µM) was 86.3%. The viability, T/C (second compound 1 µM, first compound 0.1 µM) was 54%, the viability, T/C (second compound 1 µM, first compound 0.316 µM) was 18.7% and the viability, T/C (second compound 1 µM, first compound 1 µM) was 5.48%. It also gave a viability, T/C (second compound 1 µM, first compound 3.16 µM) of 2.03%, a viability, T/C (second compound 1 µM, first compound 10 µM) of 1.87% and a viability, T/C (second compound 3.16 µM, first compound 0.0316 µM) of 87%. It also gave a viability, T/C (second compound 3.16 µM, first compound 0.1 µM) of 47.1%, a viability, T/C (second compound 3.16 µM, first compound 0.316 µM) of 8.29% and a viability, T/C (second compound 3.16 µM, first compound 1 µM) of 2.66%. The viability, T/C (second compound 3.16 µM, first compound 3.16 µM) was 1.51%, the viability, T/C (second compound 3.16 µM, first compound 10 µM) was 1.34% and the viability, T/C (second compound 10 µM, first compound 0.0316 µM) was 76.1%. It also gave a viability, T/C (second compound 10 µM, first compound 0.1 µM) of 46.5%, a viability, T/C (second compound 10 µM, first compound 0.316 µM) of 5.7% and a viability, T/C (second compound 10 µM, first compound 1 µM) of 1.72%. For the same compound, the viability, T/C (second compound 10 µM, first compound 3.16 µM) was 0.91% and the viability, T/C (second compound 10 µM, first compound 10 µM) was 0.74%.
